# In US10976319B2, “Cell response assay for cancer and methods of producing and using same” (Siemens Healthcare Diagnostics Inc., priority 2011, dated 2021):
# Where “and” joins values, the source holds several entries; their conditions need not be identical. Identical values can stand only once.
# Columns and labels:
# [1] = cited from earlier work; for log Ka: Eu2+ complexed by amine poly carboxylate ions
# prostate cancer cells = test: Cell response assay for prostate cancer, cells before and after camptothecin treatment; format: cell-based
# Description: (§1) The procedure to test the method was to collect 4 mL normal whole blood fresh into a VACUTAINER® tube (BD 6 mL VACUTAINER® K2EDTA tube, 10.8 mg, ref 367863, Becton Dickinson, Oakville, ON) and transfer the blood into a round centrifuge tube sealed with top. Cancer cells were added by 40 μL of prostate cell cancer suspension to obtain a range of 3000 to 8000 cells/mL (8 cells/μL or 1-2 per high powered filed HRP (HRP=0.2 μL)). The blood was lysed by adding 3 mL of lysis buffer (155 mM NH4Cl, 20 mM KHCO3, 0.1 mM Na2EDTA, pH 7.4). The tubes were rolled tubes to assure that the cells were evenly distributed and that lysis was complete, and then the sample was spun down for 15 minutes at 12,000 rpm. Next, the plasma was decanted as waste supernatant, and 4.0 mL of TES buffer (50 mM N-Tris [Hydroxymethyl]-2-aminoethane-sulfonic acid: TES, pH 7.4, 2150 mM NaCl, 2 mM MgSO4 and 1 mM KCO3) and 1% albumin was added, and the tube was rocked to mix the cells. The tube was spun down again for 15 minutes at 12,000 rpm, and the supernatant was decanted as waste. A final 2.0 mL of TES wash buffer was added with rocking to mix cells.
# (§2) The cells were then reacted with the reagents by taking 0.5 mL of washed blood to the centrifuge tube, and 40 μL of antibodies for PSA labeled with Cy5 and 40 μL of antibodies for urokinase like plasminogen activator (uPA) or plasminogen activator inhibitor (PAI-1) labeled with Texas Red (at working stock of 0.001 to 0.1 mg/mL) and PL2L piwi like labeled with FITC (at working stock of 0.001 to 0.1 mg/mL) were added. Next, 10 μl of a 100 μg/ml 4,6 Diamidino-2-phenylindole dihydrochloride (DAPI; a nucleic acid binding probe) was added from a solution in TES buffer. This was followed by incubation for 15 minutes at 37° C.
# (§3) The sample was centrifuged down for 5 minutes @ 7500 rpm, and the supernatant was decanted off as waste (^˜450 μL). 500 μL of TES buffer was then added, and the sample was vortexed and centrifuged down at 5 minutes @ 7500 rpm. Again, the supernatant was decanted off by tapping as waste (^˜450 μL). A final 500 μL of TES wash buffer was added for final imaging, and 5 μL of the solution was placed on a slide with a long cover slip of glass. Phase contrast and fluorescence microscopy was conducted with the Leica DM5000 (Leica Microsystems, Buffalo Grove, Ill.).
# (§4) The Texas Red label (ex 592, em 614 nm) was measured with a excitation band pass filter at 540-580 nm and emission band pass filter at 610-680 nm. The FITC label (ex 488, em 525 nm) was measured with an excitation band pass filter at 460-500 nm and an emission band pass filter at 512-543 nm. The DAPI probe (ex 355, em 460 nm) was measured with an excitation band pass filter at 340-380 nm and an emission band pass filter at 450-490 nm. The Cy5 label (ex 646, em 676 nm) was measured with an excitation band pass filter at 590-650 nm and an emission band pass filter at 665-735 nm.
# A novel cell response assay for prostate cancer was developed by using PSA as a tissue type marker for prostate carcinoma (Biomarker A) that is always present in the disease state. […] Chemo resistance nature (Biomarker C) was determined using PL2L piwi like antigen to determine the inhibitory response to tissue invasiveness. […]
# breast cancer cells = test: Cell response assay for breast cancer, cells before and after camptothecin treatment; format: cell-based
# Description: as §1, with “breast” for “prostate”, “cells/4” for “cells/μL”
# as §2, with “HER2/neu” for “PSA”
# as §3, with “Ill.). A sample of cells was stained with the PSS-550 probe (ex 553, em 615 nm) and measured with an excitation band pass filter at 540-580 nm and an emission band pass filter at 610-680 nm to determine cell membrane flopping as a measure of cell death in addition to cell counts.” for “Ill.).”
# as §4, with “measured with an excitation band” for “measured with a excitation band”, “nm and an emission band” for “nm and emission band”
# A novel cell response assay for breast cancer was developed by using HER2/neu as a tissue type marker for carcinoma breast cancer (Biomarker A) that is always present in the disease state. […]
# [2] = camptothecin concentration adjusted
# [3] = when the cell death % was highest
smiles,measurement,setting,value
O=C(O)CN(CC(=O)O)C1CCCCC1N(CC(=O)O)CC(=O)O (centres unmarked) [DCTA],log Ka,[1],19
O=C(O)CN(CCN(CC(=O)O)CC(=O)O)CCN(CC(=O)O)CC(=O)O [DTPA],log Ka,[1],23
O=C(O)CN(CCN(CC(=O)O)CC(=O)O)CC(=O)O [EDTA],log Ka,[1],17
"CC(=O)CC(=O)c1ccccc1 [HBA, benzoylacetone]",log K,[1]; europium chelate,18.9
O=C(O)CN(CCO)CCN(CC(=O)O)CC(=O)O [HEDTA],log Ka,[1],15
O=C(O)CNCC(=O)O [IMDA],log Ka,[1],6
"O=C(CC(=O)C(F)(F)F)c1cccs1 [TTA, thenoyltriflouracetone]",association constant (log Ka),"[1]; europium chelate, when converted to enolate",8.0
CC[C@@]1(O)C(=O)OCc2c1cc1n(c2=O)Cc2cc3ccccc3nc2-1 [camptothecin],cancer cell count,prostate cancer cells; as the cell death % increased,decrease
same,phosphatidylserine flopping,prostate cancer cells; as the cell death % increased,increased
same,% of the cancer cells in cultures killed,prostate cancer cells; [2],> 80% and 60% and 40%
same,"biomarker B, namely uPA and PA1 (metastatic potential)",prostate cancer cells; [3],increase
same,"biomarker C, namely PL2L piwi like (chemo resistance)",prostate cancer cells; [3],decrease
same,cancer cell count,breast cancer cells; as the cell death % increased,decrease
same,phosphatidylserine flopping,breast cancer cells; as the cell death % increased,increased
same,% of the cancer cells in cultures killed,breast cancer cells; [2],> 80% and 60% and 40%
same,"biomarker B, namely uPA and PA1 (metastatic potential)",breast cancer cells; [3],increase
same,"biomarker C, namely PL2L piwi like (chemo resistance)",breast cancer cells; [3],decrease
